Laboratory results taken from patent US10632106B2, “Methods of cancer treatment with 2-(1′H-Indole-3′-carbonyl)-thiazole-4-carboxylic acid methyl ester” (Ariagen, Inc., priority 2009, dated 2020).

Columns and labels:
[1] = system: Murine Lewis lung cancer cell line LLC tumors; experiment: Syngeneic murine Lewis lung cancer (LLC) model in C57BL/6 mice; assay type: in vivo; conditions: for TGI (Tumor Growth Inhibition): TGI=ΔT/ΔC×100%
Description: All the procedures related to animal handling, care, and the treatment in the study were performed following guidelines approved by an Institutional Animal Care and Use Committee (IACUC) of Crown Bioscience, Inc. (Santa Clara, Calif., USA, a contract research organization we hired) based on the guidance of the Association for Assessment and Accreditation of Laboratory Animal Care (AAALAC). Animals were checked for any effects of tumor growth and drug treatment on normal behavior such as mobility, food and water consumption, body weight gain/loss (gross body weights were measured twice weekly), eye/hair matting, and any other abnormal effect. Death and observed clinical signs were recorded on the basis of the number of animals within each group. Individual animals with a tumor volume exceeding 3,000 mm^3 or animals of a group with a mean tumor volume exceeding 2,000 mm^3 were euthanized. In addition, animals showing signs of severe distress and/or pain, dropping body weight more than 20% from that at the start of treatment, or losing the capability of accessing adequate food or water were humanely sacrificed.
Tumor volume was measured twice weekly in two dimensions using a caliper and the volume was calculated with a formula of: V=0.5 a×b^2, where a and b are the long and short diameter (in mm) of a tumor, respectively. The tumor volume was then used for calculations of both TGI (Tumor Growth Inhibition) and TGD (Tumor Growth Delay). The TGI was determined by: TGI=ΔT/ΔC×100%, where ΔT was a difference between the mean tumor volume at a specified day of observation and that at the day treatment starts (day 1) for a drug treated group whereas ΔC was the same difference measured for the control group. The TGD was calculated as: TGD=T−C, where T was the time (in days) required for tumors in a drug treated group to reach a predetermined mean tumor volume and C the time (in days) in the control group to reach the same volume. A tumor weight was derived by equating 1,000 mm^3 in volume to 1,000 mg in weight. A net body weight was then derived by subtracting a tumor weight from a corresponding gross body weight with the tumor.
Summary statistics, including mean and the standard error of the mean (SEM), are provided for the tumor volume of each group at each time point. Statistical analysis of difference in tumor volume among groups was conducted on a data set either at the best therapeutic time point or at the final dosing day as indicated. The tumor volume data were log-transformed and evaluated using a one-way ANOVA followed by Tukey's test when significance was observed. All data were analyzed using SPSS 16.0 and p<0.05 was considered to be statistically significant.
Murine Lewis lung cancer cell line LLC (ATCC) was cultured as described for LNCaP in Example 1 except DMEM, instead of RPMI-1640, medium being used. Each female C57BL/6 mice, 6 to 8 weeks of age, was inoculated with 3×10^5 LLC cells in 0.1 ml of PBS for tumor development. ITE treatment was started when a mean tumor volume reached 80 to 120 mm^3. All the other materials and methodologies were the same as that described in Example 1.

[2] = system: U14 (mouse cervical cancer) homografts; experiment: U14 homograft (syngeneic) growth inhibition in ICR mice; assay type: in vivo; conditions: ITE 200 mg/kg i.p. once daily
Description: All the procedures related to animal handling, care, and the treatment in the study were performed following guidelines of KeyGen Biotechn Co., Ltd. (Nanjing, China), a contract research organization we hired, based on the guidance of the Association for Assessment and Accreditation of Laboratory Animal Care (AAALAC). Animals were checked for any effects of tumor growth and drug treatment on normal behavior such as mobility, food and water consumption, body weight gain/loss (bodyweights were measured every two days), eye/hair matting, and any other abnormal effect. Death and observed clinical signs were recorded. Individual animals with a tumor volume exceeding 3,000 mm^3 or animals of a group with a mean tumor volume exceeding 2,000 mm^3 were euthanized. In addition, animals showing signs of severe distress and/or pain or losing the capability of accessing adequate food or water were humanely sacrificed.
Cell lines HCT116, Siha, MFC were cultured in DMEM medium (high glucose) supplemented with 10% fetal bovine serum (FBS), SW116 and T24 in RPMI-1640 medium with 10% FBS, M14 and A375 in DMEM medium (high glucose) with 10% calf serum (CS), SGC7901 and Ketr-3 in RPMI-1640 medium with 10% CS, and CFPAC-1 in IMDM medium with 10% FBS. All of the cells were cultured, in the presence of 100 U/ml penicillin and 100 μg/ml streptomycin, at 37° C. in an atmosphere of 5% CO2 in air. […] The cells growing in an exponential phase were harvested and counted for tumor inoculation. Cell lines 5180 and U14 were maintained in ascites (peritoneal cavity fluid) of mice and were harvested and counted for tumor inoculation. […]
Tumor volume was measured every two days in two dimensions using a caliper and the volume was calculated with a formula of: V=0.5 a×b^2, where a and b are the long and short diameter (in mm) of a tumor, respectively. […] The TGD was calculated as: TGD=T−C, where T was the time (in days) required for tumors in a drug treated group to reach a predetermined mean tumor volume and C the time (in days) in the control group to reach the same volume. […]

Question: `COC(=O)c1csc(C(=O)c2c[nH]c3ccccc23)n1` [ITE, 2-(1′H-indole-3′-carbonyl)-thiazole-4-carboxylic acid methyl ester] was tested. Which “TGI (Tumor Growth Inhibition)” value ([1]; 20 mg/kg b.w. i.p. once daily, day 15) did it give?
Answer: The value was 65%.

Question: And the “tolerability by body weight change monitoring” value ([1]; 80 mg/kg b.w. i.p. once daily)?
Answer: Its value is “tolerated well”.

Question: What about the “tumor elimination in one mouse of the ITE group (mouse No. 33)” value ([1]; 80 mg/kg b.w. i.p. once daily for 28 days, stayed tumor free for one more month of observation) of the same molecule?
Answer: The value was “its tumor was no longer palpable at day 13”.

Question: What about the “TGD (Tumor Growth Delay)” value ([1]; 80 mg/kg b.w. i.p. once daily, at a tumor volume of 1000 mm^3) of the same molecule?
Answer: The value was 7 days.

Question: What about the “TGI (Tumor Growth Inhibition)” value ([1]; 80 mg/kg b.w. i.p. once daily, day 20) of the same molecule?
Answer: Its value is 42%.

Question: And the TGD ([2]; TGD at Vol. 2,000)?
Answer: Its TGD is 3 days.

Question: And the “TGI (%)” value ([2]; TGI at day 6, TGI=(1−ΔT/ΔC)×100%)?
Answer: The value was 46%.

Question: And the “Weight Loss” value ([2]; end of therapy relative to beginning)?
Answer: Its value is 4%.
